Laboratory results taken from ChEMBL document CHEMBL1130669, “Resveratrol as a new type of DNA-cleaving agent” (1998).

test system: Escherichia coli; test: Compound was tested for its ability to inhibit DNA strand scission induced by resveratrol and Cu2+, at concentration 1 mM; type: functional

SMILES	inhibition at 1000 µM [%]
O=S(=O)(O)c1cc(O)c(O)c(S(=O)(=O)O)c1 [TIRON]	96.5
Cc1ccoc1C	98.7

test system: Escherichia coli; test: Compound was tested for its ability to inhibit DNA strand scission induced by resveratrol and Cu2+, at concentration 50 mM; type: functional

SMILES	inhibition at 50000 µM [%]
C[S+](C)[O-] [DIMETHYL SULFOXIDE]	2.8
[I-].[K+] [POTASSIUM IODIDE]	61.5
CCO [ALCOHOL]	1.9
NC(N)=S [THIOUREA]	93.8
[N-]=[N+]=[N-] [SODIUM AZIDE]	1.2
OC[C@@H](O)[C@@H](O)[C@H](O)[C@H](O)CO [MANNITOL]	0.6
